# Test results reported in patent US7598028B2, “Compositions and methods for detecting and treating prostate disorders” (The Regents of the University of Michigan, priority 2006, dated 2009).
# How the values were obtained:
# Format in all cases: cell-based, human
# [1] = tested on: EGR1 gene transcript; assay: Quantitative real-time PCR, EGR1 in LNCaP cells
# Description: Quantitative Real-Time PCR. All quantitative real-time assays were conducted with an Applied Biosystems 7900HT instrument and reagents. Cells were grown to 70% confluence in […] dishes prior to RNA purification using the Trizol reagent (Invitrogen Life Technologies). Experiments utilizing U0126 were performed as above, except that cells were treated with DMSO (vehicle) or 5 uM U0126 for 2 hours, then grown in the presence or absence of CXCL12. For all experiments, one microgram of RNA was reverse transcribed by use of Superscript III reverse transcriptase (Invitrogen, Carlsbad, Calif.). The resulting cDNA was diluted 1:100. Real-time PCR was performed by use of Assays on Demand (Applied BioSystems, Foster City, Calif.) according to the manufacturer's instructions, except that Real Time Ready with Rox passive dye (QBioGene, Carlsbad, Calif.) was used in place of TaqMan Universal PCR Master Mix. […] Cycle numbers to threshold were calculated by subtracting averaged control from averaged experimental values, and Fold Gene Expression was calculated by raising […]. […]
# Quantitative Real-Time PCR. All quantitative real-time assays were conducted as previously described with an Applied Biosystems 7900HT instrument and reagents (see, e.g., Begley L A, et al., J Biol. Chem. 2007 Sep. 14; 282(37):26767-74; herein incorporated by reference in its entirety). […]
# [2] = tested on: N15C6 prostate epithelial cells; assay: Proliferation assay (cell counts), N15C6
# Description: (§1) Proliferation assays. Cellular proliferation was assessed after plating cells at 50 000 cell/well in triplicate in six-well plates and counting cells after 24 and 96 h of incubation in complete media, serum-free media or serum-free prostate stromal fibroblast conditioned media, as described previously (Macoska J A, et al., (2004) Cancer Genet. Cytogenet. 154, 36-43; incorporated herein by reference in its entirety). Averages and standard deviations of cell number were calculated for each time point under each media condition. To assess the effects of exogenous CXCL12 on cellular proliferation, recombinant human SDF1 alpha/CXCL12 (R & D Systems, 350-NS) was added at the desired concentration in 1 mL SF HIE (or 1 mL SF HIE alone for control) to each well. The cells were counted at 24 and 96 h growth and re-fed at 48 and 72 h growth. Cell counts were normalized to 50 000 cells at 24 h to account for any plating discrepancies.
# (§2) Proliferation Assays. Cellular proliferation was assessed after plating cells at 50,000 cell/well in triplicate in six well plates and counting cells after 24 and 96 hours of incubation as described previously (see, e.g., Macoska J A, et al., 2004 Cancer Genet. Cytogenet. 154, 36-43; incorporated herein by reference in its entirety). To assess the effects of exogenous CXCL12 on cellular proliferation, recombinant human SDF1 alpha/CXCL12 (R&D Systems, 350-NS) was added at the desired concentration in 1 ml SF HIE (or 1 ml SF HIE alone for control) to each well. The cells were re-fed at 48 and 72 hours growth and counted at 24 and 96 hours growth. Cell counts were normalized to 50,000 cells at 24 hours to account for any plating discrepancies. Averages and standard deviations of cell number were calculated for each time point under each media condition. Experiments utilizing U0126 were performed as above, except that cells were treated after plating for 2 hours with either DMSO (vehicle) or 5 uM U0126 before addition of CXCL12. Cells were maintained in media containing DMSO or U0126 for the entirety of the experiment. For the antibody blockade experiments, cells were plated at 10,000 cells per well in triplicate in 24 well dishes and pre-incubated with mouse IgG2aκ (BD Pharmingen 555571) or mouse anti-CXCR4 (BD Pharmingen 555971) at 1 ug/ml for 1 hour prior to CXCL12 addition. Cells were maintained in media containing appropriate antibodies for the entirety of the experiment, and cells were counted at 24 and 96 hours as above.
# (§3) Proliferation Assays. Cellular proliferation was assessed after plating cells at 50,000 cell/well in triplicate in six well plates and counting cells after 24 and 96 hours of incubation as described previously (see, e.g., Begley L, et al., Genes Chromosomes Cancer. 2006 February; 45(2): 136-46; herein incorporated by reference in its entirety). To assess the effects of exogenous CXCL5 on cellular proliferation, recombinant human CXCL5 (R&D Systems, 254-X) was added at the desired concentration in 2 ml SF media (or 2 ml SF media alone for control) to each well. The cells were re-fed at 24 hours growth and counted at 24 and 96 hours growth. Cell counts were normalized to 50,000 cells at 24 hours to account for any plating discrepancies. Averages and standard deviations of cell number were calculated for each time point under each media condition. For the antibody blockade experiments, 10,000 cells per well were plated in triplicate in 24 well dishes and preincubated with mouse anti-human CXCR2 (Biosource AHR1532X) or mouse antihuman CXCR4 (BD Pharmingen 555971) at 1 ug/ml for 1 hour prior to CXCL5 addition. Cells were maintained in media containing appropriate antibodies for the entirety of the experiment and were counted at 24 and 96 hours as above.
# [3] = tested on: LNCaP prostate epithelial cells; assay: Proliferation assay (cell counts), LNCaP
# Description: as §1, §2, §3
# [4] = add back of exogenous chemokine, 96 hours
Compound,"effect on CXCL12-stimulated EGR1 gene transcription ([1]; 5 uM U0126 for 2 hours, then 50 pM CXCL12)","effect on proliferative response to CXCL12 ([2]; 1.0 uM U0126 with 1 pM, 10 pM or 100 pM CXCL12, compared to DMSO)",effect on proliferative response to CXCL12 ([2]; 5.0 uM U0126 in 0.05% DMSO),effect of U0126 on the effect of CXCL5 (anticipated) ([2]; stated as anticipated),cellular proliferation in the absence of CXCL12 ([2]; treatment with U0126),"effect on proliferative response to CXCL12 ([3]; co-treatment with U0126 (5 uM), 50 pM CXCL12)",effect of U0126 on the effect of CXCL5 (anticipated) ([3]; stated as anticipated),EGR1 transcript versus vehicle-treated cells ([1]; only at the lowest CXCL5 concentration (10 pM) tested),CXCL5 concentrations that inhibited proliferation [2],CXCL5 concentrations that stimulated proliferation [2],"proliferation versus SF media alone ([2]; 0.001-1 nM CXCL5, p<0.05)",proliferation in response to CXCL5 compared with CXCL12 ([2]; FIG. 8),"cell proliferation compared to serum-free (SF HIE) media alone [2, 4]","proliferation versus SF media alone ([3]; 0.001-1 nM CXCL5, p<0.05)",effect of CXCL5 on proliferation ([3]; CXCL5 1-10 pM),"cell proliferation compared to serum-free (SF HIE) media alone [3, 4]"
N#CC(=C(/N)Sc1ccccc1N)/C(C#N)=C(\N)Sc1ccccc1N [U0126],ablates,nearly ablated,nearly ablated,will inhibit,diminished,not affected,will inhibit,,,,,,,,,
"CXCL5: recombinant human CXCL5 (R&D Systems, 254-X), CXC-type chemokine",,,,,,,,2- to 3 fold,> 100 µM,1 to 10 pM,significantly higher,equivalently,stimulate,significantly higher,did not stimulate,stimulate
